Source: patent publication US12440479B2, “Prevention or treatment of chronic organ injury” (GEORG-AUGUST-UNIVERSITAET GOETTINGEN, STIFTUNG …, priority 2018, dated 2025)

Legend:
Format in all cases: cell-based, mouse
ARNT dimers = assay: Native gel electrophoresis of endogenous ARNT in TECs; conditions: TECs upon exposure to FK506
Text: Tissue and cells were homogenized in NP40 lysis buffer (Life technologies, Carlsbad, USA) supplemented with protease inhibitor cocktail (Roche, Basel, Switzerland). After sonication, protein samples were resolved by a 4-12% Bis-Tris polyacrylamide gel electrophoresis system (Novex, Carlsbad, USA) and transferred onto a nitrocellulose membrane (GE Healthcare, Freiburg, Deutschland), followed by a blocking step with 5% dry milk or 5% bovine serum albumin (BSA) in TBS-T (TBS pH 7.2, 0.1% Tween-20) to prevent unspecific bindings. After incubation with respective primary antibodies against ALK3 (ABD51, Merck Millipore, Billerica, USA) and ALK6 (ABD50, Merck Millipore, Billerica, USA), pSmad1/5/8 (13820, Cell Signaling, Danvers, USA), Arnt (3718, Cell Signaling, Danvers, USA), Fkbp12 (ab2918, Abcam Biochemicals, Cambridge, UK), NFATc1 (sc-7294, Santa Cruz Biotechnology, Dallas, USA), NFATc2 (sc-7295, Santa Cruz Biotechnology, Dallas, USA), β-actin (A5316, Sigma, St. Louis, USA) and Gapdh (5G4, HyTest, Turku, Finland), secondary HRP-conjugated antibodies were used (Dako, Glostrup, Denmark). Luminescence was detected by using chemiluminescent substrate (Cell Signaling, Danvers, USA) on a ChemiDoc XRS system (Bio-Rad, Hercules, USA). Native protein samples were prepared with Native PAGE Sample Prep kit (Novex, Carlsbad, USA) according to the manufacturer's instruction. […]

murine TECs [1] = assay: Murine TEC cultures (MCT): mRNA expression (qRT-PCR), pSmad1/5/8 immunostaining, proliferation
Description: HK-2 (ATTC, Manassas, USA) are immortalized proximal tubule epithelial cells derived from normal adult human kidney. The murine proximal tubular epithelial cell line MCT was generated from the renal cortex of SJL mice (75). All cells were routinely tested negative for the presence of mycoplasma contamination. None of the cell lines used in this manuscript is listed in the ICLAC and NCBI Biosample database of misidentified cell lines. Cells were cultured in Dulbecco's modified Eagle's (DMEM, Gibco, Carlsbad, USA) medium supplemented with 100 µg/mL penicillin, 100 µg/mL streptomycin and 10% heat-inactivated fetal bovine serum (FBS, Sigma, St. Louis, USA) at 37° C. in 5% CO2. For RNA extractions, cells were seeded in 6 well culture plates at 10^5 cells per well in antibiotic free standard growth medium. […] Cells were harvested for further analysis 6 hours after incubation. To examine de novo protein syntheses, cells were again plated in 6 well culture plates as initially described and then pre-treated with the translation blocker Cycloheximide (CHX, 10 μg/mL, Sigma, St. Louis, USA). After one hour of incubation, 200 pM FK506 was applied for additional 6 hours. One night before transfection, MCT cells were seeded in 6 well culture plates at a concentration of 1.5-2×10^5 per well in antibiotic-free DMEM (Gibco, Carlsbad, USA) supplemented with 10% heat-inactivated fetal bovine serum (FBS, Sigma, St. Louis, USA). For knockdown experiments, 60 pmol siRNA (Santa Cruz Biotechnology, Dallas, USA) or scrambled siRNA (scrRNA, Santa Cruz Biotechnology, Santa Cruz, USA) was transfected, for over-expression experiments, 2 μg plasmid DNA was transfected using Lipofectamine 2000 reagent (Invitrogen, Carlsbad, USA). After 4 hours of incubation, transfection medium was replaced by antibiotic-free medium and cells recovered overnight. For stimulation experiments, cells were stimulated the day after with […] FK506 (Abcam Biochemicals, Cambridge, UK) dissolved in DMSO and harvested after 6 hours of incubation for RNA and protein analysis. For SYBR-based real-time PCR, cDNA synthesis was performed by using DNase I digestion (Invitrogen, Carlsbad, USA) and SuperScript II Reverse Transcriptase (Invitrogen, Carlsbad, USA) according to the manufacturer's protocol. 1 μL of reverse-transcribed cDNA was added to the reaction mixture containing the primer pair (200 nmol/L each) and diluted 2× Fast SYBR Green Master Mix (Applied Biosystems, Carlsbad, USA) in a final volume of 20 μL for each PCR reaction. The real-time PCR reactions were performed in a 96-well reaction plate using the StepOne Plus Real-Time System (Applied Biosystems, Carlsbad, USA) and were done in triplicates. An initiation step at 95° C. for 20 seconds was followed by 40 cycles at 95° C. for 3 to seconds and 60° C. for 30 seconds, with one cycle of dissociation at 95° C. for 15 seconds, 60° C. for 60 seconds, and 95° C. for 15 seconds. The intercalation of SYBR Green dye and its fluorescent signal is directly proportional to the amount of amplified DNA and was transformed into the cycle threshold (Ct). For normalization, the Ct values of the housekeeping genes Gapdh and Actb were subtracted from the Ct values of the gene of interest to generate the dCt values. The relative expression levels were calculated using the equation 2^−ddCt.

murine TECs [2] = assay: as above; conditions: cultured TECs, GPI-1046 10 μM

Row | SMILES | formation of ARNT dimers (ARNT dimers) | induction of ALK3 transcription (murine TECs [1]; TECs depleted for HIF1α (Hif1akd) or AHR (Ahrkd)) | mRNA expression levels of AR, ARNT, CEBPB, CREB1, GATA3, MAX (qRT-PCR) (murine TECs [1]; TECs upon exposure to FK506) | ALK3 transcription or nuclear pSmad1/5/8 accumulation (murine TECs [1]; TECs with ARNT depleted (Arntkd)) | ALK3 transcription and canonical BMP signaling responses (nuclear pSmad1/5/8) (murine TECs [1]; TECs with Cycloheximide (CHX, 10 μg/mL)) | ARNT mRNA and protein levels (murine TECs [1]; TECs with FKBP12 or YY1 depletion, FK506 supplemented) | ALK3 transcription and BMP signaling responses (murine TECs [1]; TECs with YY1 depleted (Yy1kd), FK506 supplemented) | ARNT transcription (murine TECs [1]; cultured TECs, FK506 added to culture media) | pSmad1/5/8 (murine TECs [1]; murine TECs) | canonical BMP signaling responses (murine TECs [2]) | transcriptional induction of ARNT and ALK3 mRNA expression levels (murine TECs [2])
1 | C=CC[C@@H]1/C=C(\C)C[C@H](C)C[C@H](OC)[C@H]2O[C@@](O)(C(=O)C(=O)N3CCCC[C@H]3C(=O)O[C@H](/C(C)=C/[C@@H]3CC[C@@H](O)[C@H](OC)C3)[C@H](C)[C@@H](O)CC1=O)[C@H](C)C[C@@H]2OC [FK506, tacrolimus] | further enhanced | preserved effectiveness | increased | failed to induce | failed to induce | did not additionally induce | did not additionally induce | transcriptional ARNT induction | accumulation of pSmad1/5/8 | – | –
2 | CCC(C)(C)C(=O)C(=O)N1CCC[C@H]1C(=O)OCCCc1cccnc1 [GPI-1046, 3-(3-pyridyl)-1-propyl-(2S)-1-(3,3-dimethyl-1,2-dioxopentyl)-2-pyrrolidinedine carboxylate] | – | – | – | – | – | – | – | – | – | activation of canonical BMP signaling responses | equally effective
